The subject of this test is Type 2 diabetes patients. Kind of test: Clinical trials: DiabetainC co-administered with Metformin or other anti-diabetes medications (Hb A1c, fasting blood glucose). It is filed as in vivo, human. As for the experimental part:
Clinical trials have shown that “DiabetainC” supplements in accordance with this disclosure, when administered to Type 2 diabetes patients, lowers Hb A1c by an average of 1.7% when co-administered with Metformin, as compared with a 1.2% lowering of Hb A1c when Metformin is used by itself. This is a significant improvement. A 0.5% to 1% lowering of Hb A1c correlates with a 20% reduction in morbidity.
Clinical trials have shown an advantageous decrease in fasting blood glucose (FBG) of 72 mg/dL when co-administered with Metformin, as compared with a lowering of 48 mg/dL when Metformin is administered alone. […] These improvements are significant, as every 15 mg/dL to 40 mg/dL decrease in FBG reduces diabetes related heart diseases up to 50%.

In the case of `CN(C)C(=N)N=C(N)N` [Metformin], where the note is “Metformin administered alone”, the “lowering of fasting blood glucose (FBG)” value was found to be 48 mg/dL. The “lowering of Hb A1c” value (Type 2 diabetes patients, Metformin used by itself) is 1.2%.

For the origin of these results see patent US20160166631A1, “NUTRACEUTICAL COMBINATION FOR PREVENTION AND TREATMENT OF TYPE 2 DIABETES” (priority 2014, published 2016).
